{"source": "PubChem BioAssay AID652143", "about": "(Broad Institute, 2013)", "experiment_in_all_cases": "apoptosis induction across cell line panel, profiling panel, mechanism study for HRAS target identification project, Caspase-Glo 3/7 luminescence, multiple timepoints (AID 652143)", "key": {"[1]": {"tested_on": "SNB-19", "conditions": "caspase 3/7 luminescence, 1/6/24 h"}, "[2]": {"tested_on": "HT-29", "conditions": "caspase 3/7 luminescence, 1/6/24 h, caspase 3/7 AC40, timepoint 2"}, "[3]": {"tested_on": "LOX-IMVI", "conditions": "caspase 3/7 luminescence, 1/6/24 h, caspase 3/7 AC40, timepoint 3"}, "[4]": {"tested_on": "U-251", "conditions": "caspase 3/7 luminescence, 1/6/24 h"}, "[5]": {"tested_on": "SR", "conditions": "caspase 3/7 luminescence, 1/6/24 h"}}, "note": "Results filed as inconclusive are left out. The source made the active and inactive calls. How the calls were made is not given here.", "data": [{"molecule": "Cc1onc(C(=O)N2CCN(C(c3ccc(Cl)cc3)c3ccc(Cl)cc3)CC2)c1[N+](=O)[O-]", "values": [{"measurement": "outcome", "setting": "[1]", "value": "inactive"}]}, {"molecule": "O=C(NCCOCCOCCOc1ccc(N(C(=O)CCl)C(C(=O)NCCc2ccccc2)c2cccs2)cc1Cl)c1ccc(COC2C#CCCCCC2)cc1", "note": "(stereo not given)", "values": [{"measurement": "AC40", "setting": "[2]", "value": "> 35", "unit": "µM"}]}, {"molecule": "CC(C)(C)OC(=O)NCCOCCOCCOc1ccc(N(C(=O)CCl)C(C(=O)NCCc2ccccc2)c2cccs2)cc1Cl", "note": "(stereo not given)", "values": [{"measurement": "AC40", "setting": "[1]", "value": "> 35 µM (inactive)"}]}, {"molecule": "Cc1onc(C(=O)N2CCN(C(c3ccc(Cl)cc3)c3ccc(OCCOCCOCCNC(=O)OC(C)(C)C)cc3)CC2)c1[N+](=O)[O-]", "note": "(stereo not given)", "values": [{"measurement": "outcome", "setting": "[1]", "value": "inactive"}]}, {"molecule": "CCC(=O)N(c1ccc(OC)c(Cl)c1)C(C(=O)NCCc1ccccc1)c1cccs1", "note": "(stereo not given)", "values": [{"measurement": "AC40", "setting": "[3]", "value": "> 35", "unit": "µM"}, {"measurement": "outcome", "setting": "[1]", "value": "inactive"}, {"measurement": "outcome", "setting": "[4]", "value": "inactive"}]}, {"molecule": "CO[C@H]1C[C@@H]2CC[C@@H](C)[C@@](O)(O2)C(=O)C(=O)N2CCCC[C@H]2C(=O)O[C@H]([C@H](C)C[C@@H]2CC[C@@H](O)[C@H](OC)C2)CC(=O)[C@H](C)/C=C(\\C)[C@@H](O)[C@@H](OC)C(=O)[C@H](C)C[C@H](C)/C=C/C=C/C=C/1C", "values": [{"measurement": "outcome", "setting": "[1]", "value": "inactive"}, {"measurement": "AC40", "setting": "[1]; caspase 3/7 AC40, timepoint 2", "value": 35, "unit": "µM"}]}, {"molecule": "COc1ccc(N(C(=O)CCl)C(C(=O)NCCc2ccccc2)c2cccs2)cc1Cl", "note": "(stereo not given)", "values": [{"measurement": "AC40", "setting": "[5]", "value": 22.2, "unit": "µM"}, {"measurement": "AC40", "setting": "[5]; caspase 3/7 AC40, timepoint 2", "value": 0.177, "unit": "µM"}, {"measurement": "AC40", "setting": "[5]; caspase 3/7 AC40, timepoint 3", "value": 0.551, "unit": "µM"}, {"measurement": "AC40", "setting": "[4]", "value": 14.7, "unit": "µM"}, {"measurement": "AC40", "setting": "[4]; caspase 3/7 AC40, timepoint 2", "value": 1.45, "unit": "µM"}, {"measurement": "AC40", "setting": "[4]; caspase 3/7 AC40, timepoint 3", "value": 0.948, "unit": "µM"}]}]}
